Data from patent publication US20220260587A1, “METHOD” (Worg Pharmaceuticals (Hangzhou) Co., Ltd., priority 2019, published 2022).

Assays:
[1] = biological target: MHCII (HLA-DR2) with bound CLIP (MHCII-CLIP) (Homo sapiens, UniProt P01903+P01911); assay: CLIP displacement assay; assay type: cell-based; details: MBP-specific T cell line 24 hours
Procedure: Response of MBP-specific T cell line to HLA-DR2 monomers following peptide exchange. Biotinylated HLA-DR2 (DRB1*1501) monomers, with the CLIP peptide bound, were attached to neutravidin coated 96 well plates. Wells were incubated with the indicated concentration of MBP 83-99, a dominant HLA-DR2 restricted epitope of MBP, for 16 hours and the plates washed. Control wells were coated with the DR2 monomer pre-loaded with the MBP 83-99 peptide. A T cell line specific for MBP was incubated with the monomers at 37° C. for 24 hours and response assessed by measurement of secreted IL-2.
MHCII (HLA-DR2) with bound CLIP (MHCII-CLIP) was affixed to wells of a 96-well plate using neutravidin and biotin. In particular, 96-well plates were coated with 15 μg/ml neutravidin in PBS overnight at 4° C. Plates were washed twice with wash buffer (0.1% BSA/PBS) and blocked with 1% BSA in PBS for 2 hours at room temperature. Plates were washed twice with wash buffer and 0.125 μg/ml of biotin-MHCII-CLIP in PBS was added for a 2-hour incubation at room temperature in a humid atmosphere. Plates were washed 4 times with wash buffer, leaving wells coated in MHCII-CLIP. Positive control wells were coated with MHCII with bound MBP 83-99 (instead of CLIP). […]
T cell activation was assessed by measuring secreted IL2.

MHCII on dendritic cells = assay: In vivo MHCII loading assay; parameters: species or system HLA-DRtg mice; details: for CD4+ T cell activation (IFNγ) by dendritic cells loaded in vivo: 100 μg peptide subcutaneously, spleen CD11c+ cells 2 hours post injection, co-culture 72 hours, FIG. 4
Procedure: Response of peptide-specific CD4^+ T cells towards peptide loaded in vivo on dendritic cells. […] 2 h post injection, spleens were dissected and CD11c^+ cells (dendritic cells) were isolated. These CD11c^+ cells were co-cultured with peptide-specific CD4+ cells for 72 h at 37° C. IFNγ was measured in the supernatant of these cultures to evaluate the response to peptide by the CD4^+ T cells.
In particular, HLA-DRtg mice were injected with 100 μg of peptide in 100 μl PBS subcutaneously in the flank. Control animals received a subcutaneous injection of 100 μl PBS. After 2 hours, spleens were harvested and single-cell suspensions were made. CD11c^+ cells (splenic dendritic cells) were positively selected using CD11c microbeads according to the manufacturer's instructions (Miltenyi Biotec, Bergisch Gladbach, Germany). Average purities of >92% were reached.
1×10^5 CD11c^+ cells were co-cultured with 1×10^5 CD4^+ cells (primary T cells) in round bottom 96-well plates in X-vivo 15 medium (supplemented with 2 mM L-glutamine, 50 U/mL penicillin and 50 U/mL streptomycin; Lonza). The CD4^+ cells were isolated from HLA-DRtg mice that were immunised subcutaneously in the base of the tail with 50 μg peptide emulsified in CFA (peptide/CFA). Ten days after immunisation, draining lymph nodes (LN) and spleens were harvested. LN cells and splenocytes were isolated and CD4^+ T cells were isolated by negative selection using Magnisort Mouse CD4 Isolation kit (ThermoFisher Scientific) according to the manufacturer's instructions.
After 72 hours, supernatant of the CD11c^+-CD4^+ co-cultures was collected. CD4^+ T cell activation was analysed by IFNγ ELISA (R&D Systems, Abingdon, UK). In a parallel experiment, CD4^+ T cell responses towards peptide added in vitro were assessed to make sure the T cells recognize the peptides presented by the CD11c^+ cells.

MHCII = details: test peptides of the competition assay; cited from earlier work
[2] = tested on: response to protein antigen (SAg) in lymph node and spleen cells; assay: Ex vivo tolerance assay; assay type: in vivo, HLA-DR transgenic mice; details: dose-escalating subcutaneous injections (0,1; 1; 10 and 3×100 μg), IFNg response to SAg, FIG. 5
Procedure: Response to protein antigen in lymph nodes (A) and spleens (B) of peptide-treated and non-treated mice. HLA-DR transgenic mice were treated with a dose-escalating regime of subcutaneous injections (0,1; 1; 10 and 3×100 μg every other day) of a tolerogenic (peptide Q) or non-tolerogenic (peptide P) peptide, or control injections (PBS). Afterwards, mice were immunized with peptide antigen in CFA and 10 days later, lymph nodes and spleens were dissected. Lymph node and spleen cells were cultured in vitro for 3 days at 37° C. in the presence of protein antigen (SAg) or positive control (PPD). The response of the cells towards the protein antigen was evaluated by measuring IFNg levels in supernatant of the cultures. *p<0.05
HLA-DRtg mice were injected subcutaneously in the flank region with 0.1 μg, 1 μg and 10 μg of peptide on days −15, −13 and −11 respectively, followed by 3 injections of 100 μg peptide on days −8, −6 and −4 (dose escalation schedule). On day 0, the mice were immunised subcutaneously in the base of the tail with 50 μg antigen (parental peptide) emulsified in CFA (peptide/CFA).
Ten days after immunisation, draining lymph nodes (LN) and spleens were harvested. […]
IFNγ concentrations in supernatants were assessed by cytokine ELISA (R&D Systems, Abingdon, UK) and cell activation was measured.

EAE = details: cited from earlier work

MHCII (HLA-DR2) with bound CLIP (MHCII-CLIP), sequence (P01903 26-254): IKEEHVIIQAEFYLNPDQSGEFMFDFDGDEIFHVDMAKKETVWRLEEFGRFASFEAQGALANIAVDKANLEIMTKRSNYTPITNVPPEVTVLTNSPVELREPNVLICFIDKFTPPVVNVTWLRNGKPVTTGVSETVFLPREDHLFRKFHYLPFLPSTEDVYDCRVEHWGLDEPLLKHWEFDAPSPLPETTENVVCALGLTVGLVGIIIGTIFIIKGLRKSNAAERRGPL
MHCII (HLA-DR2) with bound CLIP (MHCII-CLIP), sequence (P01911 30-227 limits assumed): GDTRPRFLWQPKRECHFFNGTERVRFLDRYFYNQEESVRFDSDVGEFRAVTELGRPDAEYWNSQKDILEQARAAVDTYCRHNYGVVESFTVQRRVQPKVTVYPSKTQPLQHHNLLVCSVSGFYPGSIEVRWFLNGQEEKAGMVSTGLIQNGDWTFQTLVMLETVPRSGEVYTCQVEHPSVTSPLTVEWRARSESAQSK

Q: For ENPVVHFFKNIVTPRIP [MBP 83-99], which “T cell activation (secreted IL2)” value ([1]; MBP 83-99 at 3 μM added to MHCII-CLIP (CLIP monomer) for 16 hours) is on record?
A: T cells are activated

Q: And the “T cell activation (secreted IL2)” value ([1]; MBP 83-99 at 30 μM added to MHCII-CLIP (CLIP monomer) for 16 hours)?
A: T cells are activated

Q: Which results are given for “GILVSYQIKVK (H-GILVSYQIKVK-NH2) [Peptide N]”?
A: CD4+ T cell activation (IFNγ) by dendritic cells loaded in vivo (MHCII on dendritic cells): did not cause T cell activation; HLA-DR binding (MHCII on dendritic cells; designation in legend of FIG. 4): HLA-DR non-binding

Q: With “GLKMFPDLTKVYSTD (H-GLKMFPDLTKVYSTD-NH2) [Peptide L]” as the substance, how does the “affinity for MHCII (known)” value (MHCII) read?
A: good affinity

Q: With “KKEIFKKISRDKSVTIYLEKK (H-KKEIFKKISRDKSVTIYLEKK-NH2) [Peptide M]” as the substance, how does the “affinity for MHCII (known)” value (MHCII) read?
A: poor affinity

Q: Which tolerogenicity [2] does the source give for “KKIFKKISRDKSVTIYLKK (H-KKIFKKISRDKSVTIYLKK-NH2) [Peptide P]” here?
A: non-tolerogenic

Q: Which “CD4+ T cell activation (IFNγ) by dendritic cells loaded in vivo” value (MHCII on dendritic cells) does the source give for “KKKGILVSYQIKVKKKK (H-KKKGILVSYQIKVKKKK-NH2) [Peptide 0]” here?
A: did

Q: Which tolerogenicity [2] does the source give for “KKKIFKKISRDKSVTIYLKKK (H-KKKIFKKISRDKSVTIYLKKK-NH2) [Peptide Q]” here?
A: tolerogenic

Q: With “LILLPLLANNRERRGIALDGKIKHEDTNLASSTIIKEG [Peptide K]” as the substance, how does the “affinity for MHCII (known)” value (MHCII) read?
A: poor affinity

Q: With “MBP peptide 89-101: myelin basic protein (MBP) peptide 89-101, immunodominant antigen after immunisation (PHLIRLFSRDAPG; UniProt P02686 89-101, looked up, fragment)” as the substance, how does the inducing tolerance (EAE; administered in solution) read?
A: ineffective

Q: What about the “immunogen: priming for T cell reactivity and induction of EAE” value (EAE; after immunisation) of the same substance?
A: very effective immunogen

Q: With “NPILLWQPIPVHTVPLSEDQ (H-NPILLWQPIPVHTVPLSEDQ-NH2) [Peptide J, reference compound]” as the substance, how does the “affinity for MHCII (known)” value (MHCII) read?
A: good affinity
